Reference: patent publication USRE47437E1, “Prolyl hydroxylase inhibitors and methods of use” (Akebia Therapeutics, Inc., priority 2015, dated 2019)

Key:
HIF-1α = assay: Mouse tissue HIF Western blot analysis; format: in vivo; conditions: mouse liver; FIG. 1
Protocol: (§1) Mouse Ischemic Hindlimb Study
(§2) All animal work is conducted in accordance with the Guide for the Care and Use of Laboratory Animals (National Academy of Sciences; Copyright© 1996) and the Institutional Animal Care and Use Committee guidelines at Procter and Gamble Pharmaceuticals. We studied 9-10 week old male C57Bl/6 mice from Charles River Laboratory (Portage, Mich.). The mice are orally dosed with vehicle (aqueous carbonate buffer, 50 mM; pH 9.0) or compound 1 in vehicle at 50 mg/kg or 100 mg/kg. The animals are dosed three times: day 1 at 8 am and 5 pm, day 2 at 8 am. One hour after the first dose, unilateral arterial ligation is performed under anesthesia using isoflurane. The femoral artery is ligated proximal to the origin of the popliteal artery. The contralateral limb underwent a sham surgical procedure. Ligation is performed in an alternating fashion between right and left hindlimbs. Two hours after 8 am dosing on day 2, we obtained blood by ventricular stick while the mice are anesthetized with isoflurane. Serum samples for EPO analysis are obtained using gel clot serum separation tubes. Heart, liver, and gastrocnemius muscles are harvested, snap-frozen in liquid nitrogen, and stored in −80° C. until use.
Mouse Tissue HIF Western Blot Analysis
Tissues from mice stored at −80° C. are powdered with mortar and pestle chilled with liquid nitrogen. […]

EPO = assay: Mouse serum EPO assay (mouse ischemic hindlimb study); format: in vivo; conditions: versus vehicle; after oral dosing; FIG. 2
Protocol: as §1, §2
The mouse serum EPO is detected using Mouse Quantikine Erythropoietin ELISA kit from R&D Systems according to manufacturer's instructions.

## O=C(O)CNC(=O)c1ncc(-c2cccc(Cl)c2)cc1O [{[5-(3-Chlorophenyl)-3-hydroxypyridine-2-carbonyl]amino}-acetic acid]
HIF-1α
  stabilization of HIF-1α, immunoblot analysis of nuclear extracts: stabilization of HIF-1α in mouse liver
EPO
  erythropoietin level in mouse serum: elevated versus vehicle
